From paper PMC10894229, “Novel antimicrobial peptides against Cutibacterium acnes designed by deep learning” (Scientific Reports, 2024)
Read-outs that look alike come from different tables or passages of the source. Ends that are not written are not given here.

What was measured:
[1] = tested on: human keratinocytes (HaCaT); assay: HaCaT cell viability, CCK-8 assay; type: cell-based
Experimental: HaCaT (IM-H225) cells from Xiamen Immocell Biotechnology Co., Ltd were cultured in DMEM high glucose medium (4.5 g/L, Gibco, USA), supplemented with 10% fetal bovine serum (Gibco, USA), 100 U/mL of penicillin and 100 μg/mL of streptomycin in a 5% CO2 fully humidified environment at 37 °C.
Cell Counting Kit-8 (CCK-8; Biosharp, China) was used to assess the rate of cellular proliferation and quantify cell viability. In brief, HaCaT cells were seeded in 96-well plates with 100 μL of medium at a density of 1 × 10^4 cells per well. After incubation of cells overnight, peptides were added into the medium for another 24 h incubation. Then, 10 μL of CCK8 solution was applied to each well and incubated for 1 h at 37 °C. Finally, the absorbance values at 450 nm were determined using a microplate reader (SYNERGY-H1, BioTek, USA). Two columns of the plate were kept for negative control (medium only) and growth control (medium with HaCaT cell). All experiments were conducted in triplicate.

[2] = tested on: rabbit red blood cells (rRBCs); assay: Hemolytic activity assay; type: cell-based
Experimental: The hemolytic activity of peptides was assayed on rabbit red blood cells (rRBCs)[43]. Briefly, 2% rRBCs (150 μL) were incubated in the presence of various peptide concentrations (50 μL) at 37 °C for 2 h. After centrifugation, the supernatants were collected for measuring absorbance at 545 nm. PBS and 0.01% Triton X-100 were used as the negative (no hemolysis) and positive (100% hemolysis) control, respectively. Triplicate tests were performed.

C. acnes (BNCC 336649) = conditions: for Concentration with antimicrobial activity >50%: C. acnes; for Concentration with antimicrobial activity >50% / Category of in vitro test antimicrobial activity against C. acnes: supplementary Table 5; for Antimicrobial activity > 50% against C. acnes: broth microdilution, 48 h, OD 630 nm
Experimental: The strain of C. acnes (BNCC 336649) was cultured in Wilkins-Chalgren Anaerobe Broth (QingDao RiShui Bio-technologies, 11071) at 37 °C under an anaerobic atmosphere performed by a Labiophy HL-B automatic hypoxic workstation (Dalian, Liaoning Province, Labiophy HL-B), inflated with a gas mix of 15% carbon dioxide, 83% nitrogen, and 2% hydrogen.
Logarithmic phase growth bacteria were used for antimicrobial testing.
To determine the MIC values, the broth microdilution method was used. […] Briefly, peptide samples were prepared as a stock solution in water and then diluted. 180 μL of the bacterial suspension (10^7 CFU/mL) and 20 μL of the tested sample were added together into 96-Well Deep Well Plates and incubated 24 h for E. coli and S. aureus or 48 h for C. acnes and C. albicans. For each test, two columns of the plate were kept for sterility control (broth only) and growth control (broth with bacterial inoculums, no antibiotics). The optical density of cultures was measured at 630 nm by a microplate reader (SYNERGY-H1, BioTek, USA) to estimate bacterial growth. All experiments were conducted in triplicate. We used ciprofloxacin (CPFX) as the antibiotic control for antimicrobial testing.

For AKRIVKLIKNFFRKL-NH2 [AMP-25], the “Cytotoxic Index” value [1] was 20, the “HaCaT cell tolerance up to” value [1] was 80 µg/mL and the “Hemolysis Index” value [2] was 60.

With “FKRLKKLFKKIWNWK [HPA3NT3, reference compound]” the “Cytotoxic Index” value ([1]; ratio of EC90 (HaCaT) to MIC of C. acnes) was 8 and the “Hemolysis Index” value ([2]; ratio of EC90 (rabbit red blood cells) to MIC of C. acnes) was 32.

GIFKKITGKLFKWIK [AMP-5] was tested, and the “Cytotoxic Index” value [1] was 10, the “HaCaT cell tolerance up to” value [1] was 80 µg/mL and the “Hemolysis Index” value [2] was 30.

With GVFDWLKKLGKKLAG [AMP-14] the “HaCaT cell tolerance up to” value [1] was 80 µg/mL, the “Concentration with antimicrobial activity >50%” value (C. acnes (BNCC 336649)) was 12.5 µg/mL and the “Antimicrobial activity > 50% against C. acnes” value (C. acnes (BNCC 336649); at 25 µg/mL) was “Inhibit (A peptide was deemed to have antimicrobial activity if C. acnes growth was inhibited by more than 50% at a given concentration)”. For the same substance, the “Antimicrobial activity > 50% against C. acnes” value (C. acnes (BNCC 336649); at 50 µg/mL) was “Inhibit (A peptide was deemed to have antimicrobial activity if C. acnes growth was inhibited by more than 50% at a given concentration)”, the “Antimicrobial activity > 50% against C. acnes” value (C. acnes (BNCC 336649); at 100 µg/mL) was “Inhibit (A peptide was deemed to have antimicrobial activity if C. acnes growth was inhibited by more than 50% at a given concentration)” and the “Category of in vitro test antimicrobial activity against C. acnes” value (“Category” for short) (C. acnes (BNCC 336649)) was “Strong AMP”.

In the case of GWAKRLATRLAKAIL-NH2 [AMP-27], the “Cytotoxic Index” value [1] is reported as 12.8, the “HaCaT cell tolerance up to” value [1] is reported as 320 µg/mL and the “Hemolysis Index” value [2] is reported as 6.4.

With HFLGVVAKLVSKLF [AMP-38] the “Cytotoxic Index” value [1] was 10, the “HaCaT cell tolerance up to” value [1] was 80 µg/mL and the “Hemolysis Index” value [2] was 16.

For KILGKLLKWASKIW [AMP-31], the “Cytotoxic Index” value [1] was 8 and the “Hemolysis Index” value [2] was 20.

In the case of KKIFKRIVKIIKRLL [AMP-29], the “Cytotoxic Index” value [1] is reported as 16 and the “Hemolysis Index” value [2] is reported as 32.

For KKLACRLWKWLAKKA [AMP-21], the “HaCaT cell tolerance up to” value [1] was 80 µg/mL, the “Concentration with antimicrobial activity >50%” value (C. acnes (BNCC 336649)) was 12.5 µg/mL and the “Antimicrobial activity > 50% against C. acnes” value (C. acnes (BNCC 336649); at 25 µg/mL) was “Inhibit (A peptide was deemed to have antimicrobial activity if C. acnes growth was inhibited by more than 50% at a given concentration)”. The “Antimicrobial activity > 50% against C. acnes” value (C. acnes (BNCC 336649); at 50 µg/mL) was “Inhibit (A peptide was deemed to have antimicrobial activity if C. acnes growth was inhibited by more than 50% at a given concentration)”, the “Antimicrobial activity > 50% against C. acnes” value (C. acnes (BNCC 336649); at 100 µg/mL) was “Inhibit (A peptide was deemed to have antimicrobial activity if C. acnes growth was inhibited by more than 50% at a given concentration)” and the “Category” value (C. acnes (BNCC 336649)) was “Strong AMP”.

For KKWRKVLKLIKRLVG-NH2 [AMP-12], the “Cytotoxic Index” value [1] was 16 and the “Hemolysis Index” value [2] was 40.

KRIVHRLLKKLHSLF [AMP-9] was tested, and the “Cytotoxic Index” value [1] was 20, the “HaCaT cell tolerance up to” value [1] was 160 µg/mL and the “Hemolysis Index” value [2] was 30.

With LSKWLKKLGKLLAG [AMP-33] the “Cytotoxic Index” value [1] was 20, the “HaCaT cell tolerance up to” value [1] was 80 µg/mL and the “Hemolysis Index” value [2] was 20.

For RISSLLKRLAIKIK [AMP-16], the “Concentration with antimicrobial activity >50%” value (C. acnes (BNCC 336649)) was 25 µg/mL, the “Antimicrobial activity > 50% against C. acnes” value (C. acnes (BNCC 336649); at 25 µg/mL) was “Inhibit (A peptide was deemed to have antimicrobial activity if C. acnes growth was inhibited by more than 50% at a given concentration)” and the “Antimicrobial activity > 50% against C. acnes” value (C. acnes (BNCC 336649); at 50 µg/mL) was “Inhibit (A peptide was deemed to have antimicrobial activity if C. acnes growth was inhibited by more than 50% at a given concentration)”. The “Antimicrobial activity > 50% against C. acnes” value (C. acnes (BNCC 336649); at 100 µg/mL) was “Inhibit (A peptide was deemed to have antimicrobial activity if C. acnes growth was inhibited by more than 50% at a given concentration)” and the “Category” value (C. acnes (BNCC 336649)) was “Medium AMP”.

For SKILGKLTKAAKIAW [AMP-28], the “Concentration with antimicrobial activity >50%” value (C. acnes (BNCC 336649)) was “no”, the “Antimicrobial activity > 50% against C. acnes” value (C. acnes (BNCC 336649); at 25 µg/mL) was “No (A peptide was deemed to have antimicrobial activity if C. acnes growth was inhibited by more than 50% at a given concentration)” and the “Antimicrobial activity > 50% against C. acnes” value (C. acnes (BNCC 336649); at 50 µg/mL) was “No (A peptide was deemed to have antimicrobial activity if C. acnes growth was inhibited by more than 50% at a given concentration)”. The “Antimicrobial activity > 50% against C. acnes” value (C. acnes (BNCC 336649); at 100 µg/mL) was “No (A peptide was deemed to have antimicrobial activity if C. acnes growth was inhibited by more than 50% at a given concentration)” and the “Category” value (C. acnes (BNCC 336649)) was “No AMP”.

For VKRILKWAFK [AMP-1], the “Antimicrobial activity > 50% against C. acnes” value (C. acnes (BNCC 336649); at 25 µg/mL) was “No (A peptide was deemed to have antimicrobial activity if C. acnes growth was inhibited by more than 50% at a given concentration)”, the “Antimicrobial activity > 50% against C. acnes” value (C. acnes (BNCC 336649); at 50 µg/mL) was “Inhibit (A peptide was deemed to have antimicrobial activity if C. acnes growth was inhibited by more than 50% at a given concentration)” and the “Antimicrobial activity > 50% against C. acnes” value (C. acnes (BNCC 336649); at 100 µg/mL) was “Inhibit (A peptide was deemed to have antimicrobial activity if C. acnes growth was inhibited by more than 50% at a given concentration)”. For the same substance, the “Category” value (C. acnes (BNCC 336649)) was “Medium AMP”.

VKRLKKAFKKLARLV [AMP-32] was tested, and the “Antimicrobial activity > 50% against C. acnes” value (C. acnes (BNCC 336649); at 25 µg/mL) was “No (A peptide was deemed to have antimicrobial activity if C. acnes growth was inhibited by more than 50% at a given concentration)”, the “Antimicrobial activity > 50% against C. acnes” value (C. acnes (BNCC 336649); at 50 µg/mL) was “Inhibit (A peptide was deemed to have antimicrobial activity if C. acnes growth was inhibited by more than 50% at a given concentration)” and the “Antimicrobial activity > 50% against C. acnes” value (C. acnes (BNCC 336649); at 100 µg/mL) was “Inhibit (A peptide was deemed to have antimicrobial activity if C. acnes growth was inhibited by more than 50% at a given concentration)”. The “Category” value (C. acnes (BNCC 336649)) was “Medium AMP”.

With WFKAIPQAISALKKI [AMP-26] the “Concentration with antimicrobial activity >50%” value (C. acnes (BNCC 336649)) was 100 µg/mL, the “Antimicrobial activity > 50% against C. acnes” value (C. acnes (BNCC 336649); at 25 µg/mL) was “No (A peptide was deemed to have antimicrobial activity if C. acnes growth was inhibited by more than 50% at a given concentration)” and the “Antimicrobial activity > 50% against C. acnes” value (C. acnes (BNCC 336649); at 50 µg/mL) was “No (A peptide was deemed to have antimicrobial activity if C. acnes growth was inhibited by more than 50% at a given concentration)”. The “Antimicrobial activity > 50% against C. acnes” value (C. acnes (BNCC 336649); at 100 µg/mL) was “Inhibit (A peptide was deemed to have antimicrobial activity if C. acnes growth was inhibited by more than 50% at a given concentration)” and the “Category” value (C. acnes (BNCC 336649)) was “Weak AMP”.

With WLSKTAKKLWNVFKS [AMP-15] the “Concentration with antimicrobial activity >50%” value (C. acnes (BNCC 336649)) was 25 µg/mL, the “Antimicrobial activity > 50% against C. acnes” value (C. acnes (BNCC 336649); at 25 µg/mL) was “Inhibit (A peptide was deemed to have antimicrobial activity if C. acnes growth was inhibited by more than 50% at a given concentration)” and the “Antimicrobial activity > 50% against C. acnes” value (C. acnes (BNCC 336649); at 50 µg/mL) was “Inhibit (A peptide was deemed to have antimicrobial activity if C. acnes growth was inhibited by more than 50% at a given concentration)”. For the same substance, the “Antimicrobial activity > 50% against C. acnes” value (C. acnes (BNCC 336649); at 100 µg/mL) was “Inhibit (A peptide was deemed to have antimicrobial activity if C. acnes growth was inhibited by more than 50% at a given concentration)” and the “Category” value (C. acnes (BNCC 336649)) was “Medium AMP”.
